Results on 19 compounds are retold here after patent US20090298820A1, “3-SUBSTITUTED-1H-PYRROLO[2,3-B]PYRIDINE AND 3-SUBSTITUTED-1H-PYRROLO[3,2-B]PYRIDINE COMPOUNDS, THEIR USE AS MTOR KINASE AND PI3 KINASE INHIBITORS, AND THEIR SYNTHESES” (Wyeth, priority 2008, published 2009).

One may read the IC50 as the concentration needed to halve the response being measured.

Where only a bound is given, the exact number is not on record here.

Holding throughout (assay type): biochemical
Test [1] deals with PI3Kα (Homo sapiens, UniProt P42336). In words: PI3K-alpha fluorescence polarization assay. As to conditions: read-out: PI3Kα Median IC50. For orientation: Fluorescence polarisation rises when a labelled molecule tumbles more slowly, as on binding a larger partner.
PI3Kα, sequence (P42336 whole entry, species assumed): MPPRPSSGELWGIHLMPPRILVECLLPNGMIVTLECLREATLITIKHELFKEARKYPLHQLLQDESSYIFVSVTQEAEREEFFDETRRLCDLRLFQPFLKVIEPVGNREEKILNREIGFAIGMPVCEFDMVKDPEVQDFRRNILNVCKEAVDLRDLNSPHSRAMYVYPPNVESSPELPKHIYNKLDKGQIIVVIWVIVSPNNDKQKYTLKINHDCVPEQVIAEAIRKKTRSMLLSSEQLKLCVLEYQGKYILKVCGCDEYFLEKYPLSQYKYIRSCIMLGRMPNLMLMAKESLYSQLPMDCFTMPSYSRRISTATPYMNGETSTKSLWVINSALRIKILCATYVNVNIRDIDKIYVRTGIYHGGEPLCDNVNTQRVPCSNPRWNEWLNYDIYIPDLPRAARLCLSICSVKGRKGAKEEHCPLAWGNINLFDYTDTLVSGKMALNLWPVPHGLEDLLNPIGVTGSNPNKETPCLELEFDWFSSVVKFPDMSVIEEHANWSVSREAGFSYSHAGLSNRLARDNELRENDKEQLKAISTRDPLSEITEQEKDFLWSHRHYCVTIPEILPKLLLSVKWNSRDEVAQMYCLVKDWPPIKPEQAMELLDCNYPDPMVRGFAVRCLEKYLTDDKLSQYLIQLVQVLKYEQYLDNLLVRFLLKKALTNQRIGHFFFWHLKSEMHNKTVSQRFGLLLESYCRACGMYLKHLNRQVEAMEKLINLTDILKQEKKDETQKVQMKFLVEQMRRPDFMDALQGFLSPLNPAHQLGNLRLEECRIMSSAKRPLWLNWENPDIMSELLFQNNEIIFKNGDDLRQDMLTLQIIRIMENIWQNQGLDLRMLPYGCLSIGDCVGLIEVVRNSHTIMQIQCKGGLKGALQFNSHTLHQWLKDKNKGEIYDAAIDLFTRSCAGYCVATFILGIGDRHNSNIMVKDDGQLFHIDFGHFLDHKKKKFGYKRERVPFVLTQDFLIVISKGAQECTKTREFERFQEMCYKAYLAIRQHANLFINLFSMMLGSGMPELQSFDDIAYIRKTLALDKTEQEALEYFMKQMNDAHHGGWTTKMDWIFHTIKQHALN
PI3Kα, sequence (P27986 whole entry partner, species assumed): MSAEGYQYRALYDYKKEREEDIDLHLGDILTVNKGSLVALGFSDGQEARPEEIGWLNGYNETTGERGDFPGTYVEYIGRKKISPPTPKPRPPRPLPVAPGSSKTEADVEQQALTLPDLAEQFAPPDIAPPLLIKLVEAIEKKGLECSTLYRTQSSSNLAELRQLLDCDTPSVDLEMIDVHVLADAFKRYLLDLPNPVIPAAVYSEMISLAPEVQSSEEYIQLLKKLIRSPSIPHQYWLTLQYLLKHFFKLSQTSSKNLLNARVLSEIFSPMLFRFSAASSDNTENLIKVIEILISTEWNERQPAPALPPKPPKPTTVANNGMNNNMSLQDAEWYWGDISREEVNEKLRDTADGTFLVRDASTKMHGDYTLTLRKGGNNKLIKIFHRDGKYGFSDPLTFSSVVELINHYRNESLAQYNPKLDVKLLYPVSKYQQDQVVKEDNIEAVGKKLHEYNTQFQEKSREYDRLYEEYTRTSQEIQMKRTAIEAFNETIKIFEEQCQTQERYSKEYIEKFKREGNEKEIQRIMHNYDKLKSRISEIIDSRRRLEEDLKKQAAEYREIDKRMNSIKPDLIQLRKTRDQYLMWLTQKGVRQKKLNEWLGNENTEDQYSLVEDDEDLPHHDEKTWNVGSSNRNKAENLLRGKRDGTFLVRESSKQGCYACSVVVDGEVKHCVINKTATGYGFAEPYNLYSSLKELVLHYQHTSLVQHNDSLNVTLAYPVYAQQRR
The target of test [2] is mTOR (Homo sapiens, UniProt P42345). In words: mTOR enzyme assay (DELFIA format, His6-S6K substrate). The conditions noted are these: read-out: mTOR Kinase Median IC50.
The target of test [3] is PI3Kγ (Homo sapiens, UniProt P48736). In words: PI3K-gamma fluorescence polarization assay. The conditions noted are these: read-out: PI3Kγ Median IC50.
PI3Kγ, sequence (P48736 whole entry, species assumed): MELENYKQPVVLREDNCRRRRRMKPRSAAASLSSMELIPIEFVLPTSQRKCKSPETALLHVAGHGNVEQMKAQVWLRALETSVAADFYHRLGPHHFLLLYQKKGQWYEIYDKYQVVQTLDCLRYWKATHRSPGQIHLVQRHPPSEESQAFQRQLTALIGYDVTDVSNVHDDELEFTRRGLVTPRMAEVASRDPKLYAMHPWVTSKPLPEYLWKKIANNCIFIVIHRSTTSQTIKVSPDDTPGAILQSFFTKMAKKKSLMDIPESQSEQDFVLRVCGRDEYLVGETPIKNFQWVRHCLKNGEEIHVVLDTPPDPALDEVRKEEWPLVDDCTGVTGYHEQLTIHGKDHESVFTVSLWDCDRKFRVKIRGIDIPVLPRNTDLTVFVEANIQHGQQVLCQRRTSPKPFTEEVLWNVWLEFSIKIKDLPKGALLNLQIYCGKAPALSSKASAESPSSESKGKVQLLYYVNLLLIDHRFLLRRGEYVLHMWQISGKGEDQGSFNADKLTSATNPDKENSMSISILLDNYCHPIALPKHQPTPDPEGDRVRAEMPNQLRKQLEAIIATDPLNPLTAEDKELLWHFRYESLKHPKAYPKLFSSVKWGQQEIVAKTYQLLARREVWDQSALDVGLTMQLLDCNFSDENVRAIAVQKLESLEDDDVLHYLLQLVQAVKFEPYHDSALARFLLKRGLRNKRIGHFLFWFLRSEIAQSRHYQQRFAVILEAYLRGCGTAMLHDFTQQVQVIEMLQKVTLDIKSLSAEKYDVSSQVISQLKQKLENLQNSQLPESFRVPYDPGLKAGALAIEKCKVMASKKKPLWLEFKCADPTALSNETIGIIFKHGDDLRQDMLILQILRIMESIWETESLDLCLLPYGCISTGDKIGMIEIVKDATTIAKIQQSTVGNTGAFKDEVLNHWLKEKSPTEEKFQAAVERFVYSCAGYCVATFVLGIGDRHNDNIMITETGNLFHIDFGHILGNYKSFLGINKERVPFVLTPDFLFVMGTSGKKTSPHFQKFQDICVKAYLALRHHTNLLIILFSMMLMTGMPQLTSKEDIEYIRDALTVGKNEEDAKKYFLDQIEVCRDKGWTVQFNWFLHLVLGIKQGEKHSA

Regarding `Cn1cc(/C=C2\Oc3ccc(NC(=O)Nc4cccnc4)cc3C2=O)c2c(N3CCC(C(=O)NCCO)CC3)ccnc21` [Compound 254, N-(2-hydroxyethyl)-1-{1-methyl-3-[(Z)-{3-oxo-5-[(pyridin-3-ylcarbamoyl)amino]-1-benzofuran-2(3H)-ylidene}methyl]-1H-pyrrolo[2,3-b]pyridin-4-yl}piperidine-4-carboxamide], the IC50 in test [1] came out at 3330 nM; in test [2] it was 4.2 nM; in test [3], 1140 nM.
Regarding `Cn1cc(/C=C2\Oc3ccc(NC(=O)Nc4cccnc4)cc3C2=O)c2c(N3CCC(C(=O)N4CCCCC4)CC3)ccnc21` [Compound 258, 1-[(2Z)-2-({1-methyl-4-[4-(piperidin-1-ylcarbonyl)piperidin-1-yl]-1H-pyrrolo[2,3-b]pyridin-3-yl}methylene)-3-oxo-2,3-dihydro-1-benzofuran-5-yl]-3-pyridin-3-ylurea], the IC50 came out at 604 nM in test [1], 47.5 nM in test [2] and 206 nM in test [3].
On the same counts, the results for `COC1CCN(C(=O)c2ccc(-c3ccnc4c3c(/C=C3\Oc5ccc(NC(=O)Nc6cccnc6)cc5C3=O)cn4C)cc2)C1` (stereo not drawn) [Compound 259, 1-{(2Z)-2-[(4-{4-[(3-methoxypyrrolidin-1-yl)carbonyl]phenyl}-1-methyl-1H-pyrrolo[2,3-b]pyridin-3-yl)methylene]-3-oxo-2,3-dihydro-1-benzofuran-5-yl}-3-pyridin-3-ylurea] are 2060 nM, 17.5 nM and 529 nM.
The like results for `COCCNC(=O)C1CCN(c2ccnc3c2c(/C=C2\Oc4ccc(NC(=O)Nc5cccnc5)cc4C2=O)cn3C)CC1` [Compound 260, N-(2-methoxyethyl)-1-{1-methyl-3-[(Z)-{3-oxo-5-[(pyridin-3-ylcarbamoyl)amino]-1-benzofuran-2(3H)-ylidene}methyl]-1H-pyrrolo[2,3-b]pyridin-4-yl}piperidine-4-carboxamide] were, in that order, 744 nM, 8.4 nM and 1920 nM.
On the same counts, the results for `CN(C)CCNC(=O)C1CCN(c2ccnc3c2c(/C=C2\Oc4ccc(NC(=O)Nc5cccnc5)cc4C2=O)cn3C)CC1` [Compound 261, N-[2-(dimethylamino)ethyl]-1-{1-methyl-3-[(Z)-{3-oxo-5-[(pyridin-3-ylcarbamoyl)amino]-1-benzofuran-2(3H)-ylidene}methyl]-1H-pyrrolo[2,3-b]pyridin-4-yl}piperidine-4-carboxamide] are over 10000 nM, 22.5 nM and 886 nM.
Turning to `CC1CN(C(=O)C2CCN(c3ccnc4c3c(/C=C3\Oc5ccc(NC(=O)Nc6cccnc6)cc5C3=O)cn4C)CC2)CC(C)O1` (stereo not drawn) [Compound 265, 1-{(2Z)-2-[(4-{4-[(2,6-dimethylmorpholin-4-yl)carbonyl]piperidin-1-yl}-1-methyl-1H-pyrrolo[2,3-b]pyridin-3-yl)methylene]-3-oxo-2,3-dihydro-1-benzofuran-5-yl}-3-pyridin-3-ylurea], the IC50 came out at 3750 nM in test [1], 40.5 nM in test [2] and 1190 nM in test [3].
Take `CN(C)CCN(C)C(=O)C1CCN(c2ccnc3c2c(/C=C2\Oc4ccc(NC(=O)Nc5cccnc5)cc4C2=O)cn3C)CC1` [Compound 266, N-[2-(dimethylamino)ethyl]-N-methyl-1-{1-methyl-3-[(Z)-{3-oxo-5-[(pyridin-3-ylcarbamoyl)amino]-1-benzofuran-2(3H)-ylidene}methyl]-1H-pyrrolo[2,3-b]pyridin-4-yl}piperidine-4-carboxamide]: the figures for the IC50 in test [1], in test [2] and in test [3] were over 10000 nM, 42.5 nM and 1200 nM, respectively.
On the same counts, the results for `CN(C)C(=O)C1CCN(c2ccnc3c2c(/C=C2\Oc4ccc(NC(=O)Nc5ccc(OC6CCOCC6)nc5)cc4C2=O)cn3C)CC1` [Compound 267, N,N-dimethyl-1-(1-methyl-3-{(Z)-[3-oxo-5-({[6-(tetrahydro-2H-pyran-4-yloxy)pyridin-3-yl]carbamoyl}amino)-1-benzofuran-2(3H)-ylidene]methyl}-1H-pyrrolo[2,3-b]pyridin-4-yl)piperidine-4-carboxamide] are 503 nM, 39 nM and 638 nM.
On the same counts, the results for `CN(C)C(=O)C1CCN(c2ccnc3c2c(/C=C2\Oc4ccc(NC(=O)Nc5ccc(N6CCOCC6)cc5)cc4C2=O)cn3C)CC1` [Compound 268, N,N-dimethyl-1-(1-methyl-3-{(Z)-[5-{[(4-morpholin-4-ylphenyl)carbamoyl]amino}-3-oxo-1-benzofuran-2(3H)-ylidene]methyl}-1H-pyrrolo[2,3-b]pyridin-4-yl)piperidine-4-carboxamide] are 2590 nM, 215 nM and 6090 nM.
The like results for `Cn1cc(/C=C2\Oc3ccc(NC(=O)Nc4ccc(N5CCOCC5)cc4)cc3C2=O)c2c(N3CC4CCC(C3)O4)ccnc21` [Compound 273, 1-[(2Z)-2-{[1-methyl-4-(8-oxa-3-azabicyclo[3.2.1]oct-3-yl)-1H-pyrrolo[2,3-b]pyridin-3-yl]methylidene}-3-oxo-2,3-dihydro-1-benzofuran-5-yl]-3-(4-morpholin-4-ylphenyl)urea] were, in that order, 5700 nM, 3350 nM and over 10000 nM.
As to `CN(C)CCOc1ccc(NC(=O)Nc2ccc3c(c2)C(=O)/C(=C/c2cn(C)c4nccc(N5CCC(C(=O)N(C)C)CC5)c24)O3)cc1` [Compound 274, 1-{3-[(Z)-{5-[({4-[2-(dimethylamino)ethoxy]phenyl}carbamoyl)amino]-3-oxo-1-benzofuran-2(3H)-ylidene}methyl]-1-methyl-1H-pyrrolo[2,3-b]pyridin-4-yl}-N,N-dimethylpiperidine-4-carboxamide], the figures for the IC50 in test [1], in test [2] and in test [3] were 778 nM, 21 nM and 934 nM, respectively.
In the case of `COC1CCN(C(=O)C2CCN(c3ccnc4c3c(/C=C3\Oc5ccc(NC(=O)Nc6cccnc6)cc5C3=O)cn4C)CC2)C1` (stereo not drawn) [Compound 275, 1-{(2Z)-2-[(4-{4-[(3-methoxypyrrolidin-1-yl)carbonyl]piperidin-1-yl}-1-methyl-1H-pyrrolo[2,3-b]pyridin-3-yl)methylidene]-3-oxo-2,3-dihydro-1-benzofuran-5-yl}-3-pyridin-3-ylurea], the IC50 stood at 1610 nM in test [1], 13 nM in test [2] and 1330 nM in test [3].
For the compound `Cn1cc(/C=C2\Oc3ccc(NC(=O)Nc4ccc(CN5CCCCC5)cc4)cc3C2=O)c2c(N3CC4CCC(C3)O4)ccnc21` [Compound 278, 1-[(2Z)-2-{[1-methyl-4-(8-oxa-3-azabicyclo[3.2.1]oct-3-yl)-1H-pyrrolo[2,3-b]pyridin-3-yl]methylidene}-3-oxo-2,3-dihydro-1-benzofuran-5-yl]-3-[4-(piperidin-1-ylmethyl)phenyl]urea], the values for the IC50 in test [1], in test [2] and in test [3] were 743 nM, 23 nM and 450 nM, respectively.
Take `Cn1cc(/C=C2\Oc3ccc(NC(=O)NC4CNC4)cc3C2=O)c2c(N3CC4CCC(C3)O4)ccnc21` [Compound 285, 1-azetidin-3-yl-3-[(2Z)-2-{[1-methyl-4-(8-oxa-3-azabicyclo[3.2.1]oct-3-yl)-1H-pyrrolo[2,3-b]pyridin-3-yl]methylidene}-3-oxo-2,3-dihydro-1-benzofuran-5-yl]urea]: the values for the half-maximal inhibitory concentration (IC50) in test [1], in test [2] and in test [3] were 49 nM, 11.4 nM and 532 nM, respectively.
On the same counts, the results for `Cn1cc(/C=C2\Oc3ccc(NC(=O)NC4CCN(C(=O)C(F)(F)F)CC4)cc3C2=O)c2c(N3CC4CCC(C3)O4)ccnc21` [Compound 286, 1-[(2Z)-2-{[1-methyl-4-(8-oxa-3-azabicyclo[3.2.1]oct-3-yl)-1H-pyrrolo[2,3-b]pyridin-3-yl]methylidene}-3-oxo-2,3-dihydro-1-benzofuran-5-yl]-3-[1-(trifluoroacetyl)piperidin-4-yl]urea] are 354 nM, 108 nM and 1720 nM.
Turning to `CN(C)C(=O)C1CCN(c2ccnc3c2c(/C=C2\Oc4ccc(NC(=O)NC5CNC5)cc4C2=O)cn3C)CC1` [Compound 287, 1-{3-[(Z)-{5-[(azetidin-3-ylcarbamoyl)amino]-3-oxo-1-benzofuran-2(3H)-ylidene}methyl]-1-methyl-1H-pyrrolo[2,3-b]pyridin-4-yl}-N,N-dimethylpiperidine-4-carboxamide], the IC50 in test [1] came to 68 nM; in test [2], 8.4 nM; in test [3] it was 314 nM.
Consider `CC(C)NC(=O)Nc1ccc2c(c1)C(=O)/C(=C/c1cn(C)c3nccc(N4CCC(C(=O)N(C)C)CC4)c13)O2` [Compound 288, N,N-dimethyl-1-(1-methyl-3-{(Z)-[5-{[(1-methylethyl)carbamoyl]amino}-3-oxo-1-benzofuran-2(3H)-ylidene]methyl}-1H-pyrrolo[2,3-b]pyridin-4-yl)piperidine-4-carboxamide], for which the IC50 was found to be 1490 nM in test [1], 73 nM in test [2] and 3780 nM in test [3].
For the compound `Cn1cc(/C=C2\Oc3ccc(NC(=O)Nc4nc5ccccc5n4C)cc3C2=O)c2c(N3CC4CCC(C3)O4)ccnc21` [Compound 289, 1-(1-methyl-1H-benzimidazol-2-yl)-3-[(2Z)-2-{[1-methyl-4-(8-oxa-3-azabicyclo[3.2.1]oct-3-yl)-1H-pyrrolo[2,3-b]pyridin-3-yl]methylidene}-3-oxo-2,3-dihydro-1-benzofuran-5-yl]urea], the figures for the IC50 in test [1], in test [2] and in test [3] were 5710 nM, 205 nM and over 10000 nM, respectively.
On the same counts, the results for `CN(C)C(=O)C1CCN(c2ccnc3c2c(/C=C2\Oc4ccc(NC(=O)Nc5nc6ccccc6n5C)cc4C2=O)cn3C)CC1` [Compound 290, N,N-dimethyl-1-(1-methyl-3-{(Z)-[5-{[(1-methyl-1H-benzimidazol-2-yl)carbamoyl]amino}-3-oxo-1-benzofuran-2(3H)-ylidene]methyl}-1H-pyrrolo[2,3-b]pyridin-4-yl)piperidine-4-carboxamide] are 1250 nM, 150 nM and over 10000 nM.
